Results on ten compounds are retold here after US8268815B2, “Pyrimidine compounds and use thereof” (Abbott GmbH & Co. KG, priority 2004, dated 2012).

For assay [1], the target named is T1, human dopamine D3 receptors (Homo sapiens, UniProt P35462).
T1 construct: expressed in transfected cells
As to the kind of experiment: Dopamine D3 receptor binding, displacement of [125I]-iodosulpiride. The note with it: membranes from HEK-293 cells with stably expressed human D3 receptors, 0.1 nM [125I]-iodosulpiride. The method, then: (§1) The substance to be tested was dissolved either in methanol/Chremophor® (BASF-AG) or in dimethyl sulfoxide and then diluted with water to the desired concentration.
(§2) Triplicate mixtures were carried out.
The incubation buffer comprised 50 mM Tris, 120 mM NaCl, 5 mM KCl, 2 mM CaCl2, 2 mM MgCl2 and 0.1% bovine serum albumin, 10 μM quinolone, 0.1% ascorbic acid (prepared fresh each day). The buffer was adjusted to pH 7.4 with HCl.
(§3) III. Measurement and Evaluation:
(§4) After incubation at 25° C. for 60 minutes, the mixtures were filtered under vacuum through Whatman GF/B glass fiber filters using a cell harvester. The filters were transferred by a filter transfer system into scintillation vials. After addition of 4 ml of Ultima Gold® (Packard), the samples were shaken for one hour and then the radioactivity was counted in a beta counter (Packard, Tricarb 2000 or 2200CA). The cp values were converted into dpm by means of a standard quench series with the aid of the instrument's own program.
(§5) Evaluation of the inhibition plots took place by iterative nonlinear regression analysis using the Statistical Analysis System (SAS) similar to the “LIGAND” program described by Munson and Rodbard.

For assay [2], the target named is T2, human dopamine D2L receptors (long isoform) (Homo sapiens, UniProt P14416).
T2 construct: expressed in transfected cells
T2 sequence (P14416 whole entry, canonical isoform): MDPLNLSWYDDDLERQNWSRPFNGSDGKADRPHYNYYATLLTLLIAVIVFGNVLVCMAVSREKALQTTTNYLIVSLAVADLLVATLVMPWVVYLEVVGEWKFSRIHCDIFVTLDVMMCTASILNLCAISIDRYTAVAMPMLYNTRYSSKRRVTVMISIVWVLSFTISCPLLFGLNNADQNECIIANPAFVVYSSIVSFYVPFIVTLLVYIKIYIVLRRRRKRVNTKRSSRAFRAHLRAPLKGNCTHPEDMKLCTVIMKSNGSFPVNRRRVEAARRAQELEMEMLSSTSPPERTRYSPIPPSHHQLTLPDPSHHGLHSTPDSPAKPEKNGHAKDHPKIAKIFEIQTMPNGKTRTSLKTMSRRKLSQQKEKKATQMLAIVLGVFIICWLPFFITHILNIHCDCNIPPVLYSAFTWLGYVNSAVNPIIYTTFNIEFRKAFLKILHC
In words: Dopamine D2L receptor binding, displacement of [125I]-iodospiperone. The conditions noted are these: ratio Ki(D2L)/Ki(D3); HEK-293 membranes. The method, then: as §1
II. Dopamine D2L Receptor:
as §2
The incubation buffer comprised 50 mM Tris, 120 mM NaCl, 5 mM KCl, 2 mM CaCl2, 2 mM MgCl2 and 0.1% bovine serum albumin. The buffer was adjusted to pH 7.4 with HCl.
as §3, §4, §5

Each structure is given as a SMILES string.

T1 sequence (P35462 whole entry): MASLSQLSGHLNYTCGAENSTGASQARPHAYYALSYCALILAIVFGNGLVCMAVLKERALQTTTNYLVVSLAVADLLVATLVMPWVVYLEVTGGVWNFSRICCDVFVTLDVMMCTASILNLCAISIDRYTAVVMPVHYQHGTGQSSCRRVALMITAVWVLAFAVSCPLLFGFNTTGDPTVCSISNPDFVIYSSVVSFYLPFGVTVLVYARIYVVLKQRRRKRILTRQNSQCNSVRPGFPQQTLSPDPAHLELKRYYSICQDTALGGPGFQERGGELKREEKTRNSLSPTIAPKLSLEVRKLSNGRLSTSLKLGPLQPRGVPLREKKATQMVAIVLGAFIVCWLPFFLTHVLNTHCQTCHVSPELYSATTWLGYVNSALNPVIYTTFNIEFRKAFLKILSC

For the compound `CCCc1cc(N2CCN(CCCCN3C(=O)CCc4c(OC)cccc43)CC2)nc(C(C)(C)C)n1` [Example 33, 1-{4-[4-(2-tert-Butyl-6-propylpyrimidin-4-yl)piperazin-1-yl]butyl}-5-methoxy-3,4-dihydroquinolin-2(1H)-one], the inhibitory constant (Ki) in assay [1] is 1.71 nM. Further, in assay [2], the “Selectivity vs. D2L (Ki(D2L)/Ki(D3))” value worked out at 65. On the same counts, the results for `CCCc1cc(N2CCN(CCCCN3C(=O)CCCc4c(O)cccc43)CC2)nc(C(C)(C)C)n1` [Example 56, 4-(2-tert-butyl-6-propyl-pyrimidin-4-yl)-1-[4-(6-hydroxy-2-oxo-2,3,4,5-tetrahydro-benzo[b]azepin-1-yl)butyl]piperazine] are 0.69 nM and 26.

The compound `CC(C)(C)c1nc(N2CCN(CCCN3C(=O)CCc4ccccc43)CC2)cc(C(F)(F)F)n1.Cl` [Example 1, 1-[2-tert-Butyl-6-(trifluoromethyl)pyrimidin-4-yl]-4-[3-(2-oxo-3,4-dihydroquinolin-1(2H)-yl)propyl]piperazin-4-ium chloride] had a Ki in assay [1] of 3.43 nM. Besides, the “Selectivity vs. D2L (Ki(D2L)/Ki(D3))” value in assay [2] was found to be 37. For `CC(C)(C)c1nc(C(F)F)cc(N2CCN(CCCCN3C(=O)CCc4c(O)cccc43)CC2)n1` [Example 36, 1-(4-{4-[2-tert-Butyl-6-(difluoromethyl)pyrimidin-4-yl]piperazin-1-yl}butyl)-5-hydroxy-3,4-dihydroquinolin-2(1H)-one] the same measures were 1.18 nM and 41.

On to `CC(C)(C)c1nc(N2CCN(C/C=C/CN3C(=O)CCc4ccccc43)CC2)cc(C(F)(F)F)n1` [Example 10, 1-((2E)-4-{4-[2-tert-Butyl-6-(trifluoromethyl)pyrimidin-4-yl]piperazin-1-yl}but-2-enyl)-3,4-dihydroquinolin-2(1H)-one], for which the Ki in assay [1] was 9.2 nM. `CCCc1cc(N2CCN(CCCCN3C(=O)CCCc4c(OC)cccc43)CC2)nc(C(C)(C)C)n1` [Example 54, 1-{4-[4-(2-tert-Butyl-6-propyl-pyrimidin-4-yl)piperazin-1-yl]butyl}-6-methoxy-1,3,4,5-tetrahydro-benzo[b]azepin-2-one]: the inhibition constant Ki in assay [1] is 2.25 nM. For the same compound, in assay [2], the “Selectivity vs. D2L (Ki(D2L)/Ki(D3))” value was 25.

In assay [1], `CCCc1cc(N2CCN(CCCCN3C(=O)CCc4ccccc43)CC2)nc(C(C)(C)C)n1` [Example 37, 1-{4-[4-(2-tert-Butyl-6-propylpyrimidin-4-yl)piperazin-1-yl]butyl}-3,4-dihydroquinolin-2(1H)-one] came in with a Ki of 1.59 nM. Further, the “Selectivity vs. D2L (Ki(D2L)/Ki(D3))” value in assay [2] is reported as 38. For `CCCc1cc(N2CCN(CCCCN3C(=O)CCC4=C3CCCC4=O)CC2)nc(C(C)(C)C)n1` [Example 44, 1-{4-[4-(2-tert-Butyl-6-propyl-pyrimidin-4-yl)piperazin-1-yl]butyl}-4,6,7,8-tetrahydro-1H,3H-quinoline-2,5-dione] the same measures were 1.54 nM and 29. On the same counts, the results for `CC(C)(C)c1nc(N2CCN(CCCCN3C(=O)CCC4=C3CCCC4=O)CC2)cc(C(F)(F)F)n1` [Example 45, 1-{4-[4-(2-tert-Butyl-6-trifluoromethyl-pyrimidin-4-yl)piperazin-1-yl]butyl}-4,6,7,8-tetrahydro-1H,3H-quinoline-2,5-dione] are 4.68 nM and 41.

Take `CC(C)(C)c1nc(N2CCN(CCCN3C(=O)COc4ccccc43)CC2)cc(C(F)(F)F)n1` [Example 2, 4-(3-{4-[2-tert-Butyl-6-(trifluoromethyl)pyrimidin-4-yl]piperazin-1-yl}propyl)-2H-1,4-benzoxazin-3(4H)-one]: the Ki in assay [1] is 12.1 nM. Further, the “Selectivity vs. D2L (Ki(D2L)/Ki(D3))” value in assay [2] stood at 29.

Usually Ki stands for a measure of affinity in units of concentration, obtained from inhibition or displacement. A higher Ki goes with a looser hold on the target.
